Here are results for 38 compounds from ChEMBL document CHEMBL4483862, “Open-source discovery of chemical leads for next-generation chemoprotective antimalarials” (2018).

The assay has as its system Plasmodium berghei. As to the kind of experiment: Luciferase/luciferin-expressing antifolate-resistant parasites were used to infect a culture of HepG2 cells that were pre-incubated with compounds. Infected hepatocytes emit light due to the luciferase reaction. Assay results are presented as the percent inhibition of light emission compared to control. […]. In kind it is functional. The settings on record: sporozoite; for IC90: read-out: LUCIFERASE INFECTION ASSAY - IC90.

[1] abbreviates: read-out: LUCIFERASE INFECTION ASSAY - IC50.

For orientation: IC50 means the concentration at which inhibition is half-maximal. As a reminder, the IC90 is the concentration needed for an effect of 90%. With `COC(=O)C1CC2CCCCC2N1C(=O)c1nn(C)c(=O)c2ccccc12` (stereo unspecified), the 90% effect concentration (IC90) was over 10 µM. The IC50 under setting [1] is over 10 µM.
Consider `O=C(Nc1ccc2nc(Cc3ccccc3)nn2c1)NC1CCCCC1`, for which the concentration for an effect of 90% (IC90) was found to be 3.6 µM. In addition, the IC50 (HEPG2TOX_HILL_SLOPE 5.83, HEPG2TOX_R_SQUARED 0.978, PBLUC_HILL_SLOPE 13.4, PBLUC_R_SQUARED 0.389, read-out: LUCIFERASE INFECTION ASSAY - IC50) stood at 3.05 µM.
Regarding `CC(C)n1c(SCC(=O)N(Cc2ccco2)C2=CCCCC2)nc2ccccc2c1=O`, the concentration for an effect of 90% (IC90) came to 9.27 µM. In addition, the IC50 (FFLUC_HILL_SLOPE 16.9, FFLUC_R_SQUARED 0.338, PBLUC_HILL_SLOPE 11.7, PBLUC_R_SQUARED 0.501, read-out: LUCIFERASE INFECTION ASSAY - IC50) stood at 7.68 µM.
In the case of `Cc1cc(C(=O)C(C)OC(=O)c2ccc(S(=O)(=O)N3CC(C)CC(C)C3)cc2)c(C)n1-c1ccc(Cl)cc1` (stereo unspecified), the 90% effect concentration (IC90) is 3.47 µM. Besides, the IC50 (FFLUC_HILL_SLOPE 16.1, FFLUC_R_SQUARED 0.63, HEPG2TOX_HILL_SLOPE 1.41, HEPG2TOX_R_SQUARED 0.912, PBLUC_HILL_SLOPE 53.4, PBLUC_R_SQUARED 0.359, read-out: LUCIFERASE INFECTION ASSAY - IC50) turned out to be 3.33 µM.
On to `CC(C)(C)c1cc(CCC(=O)NNC(=S)NC(=O)c2ccccc2)cc(C(C)(C)C)c1O`, for which the IC90 was found to be 3.76 µM. Also, the IC50 (HEPG2TOX_HILL_SLOPE 3.85, HEPG2TOX_R_SQUARED 0.996, PBLUC_HILL_SLOPE 11.4, PBLUC_R_SQUARED 0.664, read-out: LUCIFERASE INFECTION ASSAY - IC50) was 3.1 µM.
With `CC(=O)NCCC(=O)N(Cc1ccccc1)c1nc2c(C(C)C)cccc2s1`, the IC90 was determined as 6.02 µM. In addition, the IC50 (PBLUC_HILL_SLOPE 286, PBLUC_R_SQUARED 0.442, read-out: LUCIFERASE INFECTION ASSAY - IC50) turned out to be 5.98 µM.
On to `Cc1nc2ccccc2n1CCC(=O)Nc1cccc(Cl)c1`, for which the 90% effect concentration (IC90) was determined as 8.51 µM. Moreover, the IC50 (PBLUC_HILL_SLOPE 4.62, PBLUC_R_SQUARED 0.253, read-out: LUCIFERASE INFECTION ASSAY - IC50) worked out at 5.29 µM.
In the case of `O=C(N/N=C/c1c(-c2ccccc2)nc2sc3c(n12)CCCC3)c1ccc(Br)cc1`, the IC90 turned out to be 8.36 µM. For the same compound, the IC50 (FFLUC_HILL_SLOPE 0.19, FFLUC_R_SQUARED 0.758, PBLUC_HILL_SLOPE 1.28, PBLUC_R_SQUARED 0.573, read-out: LUCIFERASE INFECTION ASSAY - IC50) amounted to 1.51 µM.
Take `Clc1ccc(Nc2nccc3nc(-c4ccccc4)[nH]c23)cc1`: the IC90 was over 10 µM. For the same compound, under “PBLUC_HILL_SLOPE 3.81, PBLUC_R_SQUARED 0.353, read-out: LUCIFERASE INFECTION ASSAY - IC50”, the IC50 came to 6.7 µM.
`COc1cc(CN(C)C(=O)c2ccc3c(c2)S(=O)(=O)N=C2CCCCCN23)ccc1OC(F)F`: the IC90 is over 10 µM. The 50% inhibitory concentration (IC50) (HEPG2TOX_HILL_SLOPE 4.17, HEPG2TOX_R_SQUARED 0.672, PBLUC_HILL_SLOPE 0.764, PBLUC_R_SQUARED 0.62, read-out: LUCIFERASE INFECTION ASSAY - IC50) came to 1.97 µM.
As to `c1ccn2c(Sc3ncnc4sc5c(c34)CCC5)nnc2c1`, the 90% effect concentration (IC90) is over 10 µM. Further, for the setting “PBLUC_HILL_SLOPE 2.99, PBLUC_R_SQUARED 0.206, read-out: LUCIFERASE INFECTION ASSAY - IC50”, the 50% inhibitory concentration (IC50) is 4.93 µM.
As to `O=C(O)COc1cc(-c2ccccc2)nc2ccccc12`, the IC90 turned out to be 4.53 µM. In addition, the IC50 (HEPG2TOX_HILL_SLOPE 2.22, HEPG2TOX_R_SQUARED 0.747, PBLUC_HILL_SLOPE 12.7, PBLUC_R_SQUARED 0.342, read-out: LUCIFERASE INFECTION ASSAY - IC50) stood at 3.81 µM.
Take `OCc1cccc(-c2cnc3cnc(-c4ccccc4Oc4ccccc4)cn23)c1`: the IC90 is over 8.39 µM. For the same compound, the 50% inhibitory concentration (IC50) under setting [1] was over 8.39 µM.
Regarding `COc1cccc2cc(C(=O)/C=C/c3c(C)nc4sc(C)cn34)oc12`, the IC90 is over 10 µM. Moreover, the IC50 under setting [1] was over 10 µM.
Take `Cc1c(C(=O)OCC(=O)c2cc(C)n(-c3cccc(F)c3)c2C)sc2nc3n(c(=O)c12)CCC3`: the 90% effect concentration (IC90) is over 10 µM. The IC50 under setting [1] is over 10 µM.
As to `Fc1ccc(-c2cc3ncnc(NC4CC4)c3s2)cc1`, the IC90 is over 10 µM. Besides, under setting [1], the IC50 is over 10 µM.
On to `Cc1ccccc1-c1cn2c(-c3ccc(Cl)cc3)cnc2cn1`, for which the IC90 came to 5.18 µM. For the same compound, under “PBLUC_HILL_SLOPE 7.25, PBLUC_R_SQUARED 0.317, read-out: LUCIFERASE INFECTION ASSAY - IC50”, the IC50 is 3.83 µM.
For `COc1cc(Cl)c(C)cc1-n1c(SCc2nnc(-c3cccs3)o2)nc2ccccc2c1=O`, the IC90 was over 10 µM. The IC50 (FFLUC_HILL_SLOPE 9.81, FFLUC_R_SQUARED 0.743, PBLUC_HILL_SLOPE 8.4, PBLUC_R_SQUARED 0.579, read-out: LUCIFERASE INFECTION ASSAY - IC50) worked out at 8.6 µM.
Regarding `CC1(C)CC(=O)C/C(=N\Nc2nc(C(Cl)(Cl)Cl)nc3ccccc23)C1`, the concentration for an effect of 90% (IC90) is over 10 µM. The IC50 (HEPG2TOX_HILL_SLOPE 0.517, HEPG2TOX_R_SQUARED 0.271, PBLUC_HILL_SLOPE 3.75, PBLUC_R_SQUARED 0.163, read-out: LUCIFERASE INFECTION ASSAY - IC50) is 9.3 µM.
As for `N#Cc1ccc(CN2CCN(c3ccc(-c4nc5ccccc5[nH]4)cn3)CC2)cc1`, the IC90 is over 10 µM. Also, the IC50 under setting [1] was over 10 µM.
`c1cncc(Cn2cnc3cnc(Nc4cccnc4)cc32)c1`: the IC90 was over 10 µM. The half-maximal inhibitory concentration (IC50) under setting [1] was over 10 µM.
As to `Cc1nc(Sc2ncnc3c(Br)cccc23)sc1CC(N)=O`, the IC90 is over 10 µM. Moreover, under setting [1], the IC50 was over 10 µM.
With `Cc1cccc2sc(C(=O)NCc3cccc(NS(N)(=O)=O)c3)c(Cl)c12`, the concentration for an effect of 90% (IC90) was found to be 1.3 µM. Besides, the IC50 (PBLUC_HILL_SLOPE 16.9, PBLUC_R_SQUARED 0.264, read-out: LUCIFERASE INFECTION ASSAY - IC50) came to 1.14 µM.
Turning to `CC(=O)c1ccc(-c2cnc(N)c(-c3cccc(N(C)C)c3)c2)s1`, the IC90 is 4.08 µM. Further, the IC50 (HEPG2TOX_HILL_SLOPE 12.1, HEPG2TOX_R_SQUARED 0.413, PBLUC_HILL_SLOPE 8.96, PBLUC_R_SQUARED 0.727, read-out: LUCIFERASE INFECTION ASSAY - IC50) turned out to be 3.19 µM.
Consider `O=C(Nc1cccc(C(F)(F)F)c1)Nc1ccc2nc(-c3ccncc3)nn2c1`, for which the 90% effect concentration (IC90) was over 10 µM. Further, the IC50 under setting [1] was over 10 µM.
As to `O=C(CN1CCN(C(=O)/C=C/c2sc3ccccc3c2Cl)CC1)NC1CC1`, the 90% effect concentration (IC90) came out at 8.7 µM. The 50% inhibitory concentration (IC50) (PBLUC_HILL_SLOPE 3.79, PBLUC_R_SQUARED 0.282, read-out: LUCIFERASE INFECTION ASSAY - IC50) turned out to be 4.87 µM.
Consider `O=C(Nc1ccccc1)OCc1cccnc1Sc1ccc(Cl)cc1`, for which the IC90 was over 8.9 µM. Further, the half-maximal inhibitory concentration (IC50) under setting [1] was over 8.9 µM.
As for `C=S(=O)(NC(=O)CSc1nnc(C(F)(F)F)n1C)c1ccc(Cl)cc1` (stereo unspecified), the 90% effect concentration (IC90) is over 7.99 µM. Further, where the note is “FFLUC_HILL_SLOPE 23.5, FFLUC_R_SQUARED 0.129, read-out: LUCIFERASE INFECTION ASSAY - IC50”, the concentration for half-maximal inhibition (IC50) is over 7.99 µM.
Consider `COc1cc(Nc2ncc3c(n2)CCN(C(=O)Nc2ccc(OC(F)(F)F)cc2)C3)cc(OC)c1OC`, for which the concentration for an effect of 90% (IC90) was over 6.35 µM. The IC50 (HEPG2TOX_HILL_SLOPE 2.89, HEPG2TOX_R_SQUARED 0.596, read-out: LUCIFERASE INFECTION ASSAY - IC50) is over 6.35 µM.
For the compound `c1ccc(-c2nc(-c3ccccc3)c(-c3ccccc3)o2)cc1`, the 90% effect concentration (IC90) is over 11.1 µM. Moreover, the 50% inhibitory concentration (IC50) (FFLUC_HILL_SLOPE 6.72, FFLUC_R_SQUARED 0.191, read-out: LUCIFERASE INFECTION ASSAY - IC50) is over 11.1 µM.
`Cc1csc(SCC(=O)c2cc(C)n(-c3ccccc3)c2C)n1`: the 90% effect concentration (IC90) came to 0.219 µM. Moreover, the IC50 (PBLUC_HILL_SLOPE 0.985, PBLUC_R_SQUARED 0.172, read-out: LUCIFERASE INFECTION ASSAY - IC50) was found to be 0.0235 µM.
With `Cc1cc(=O)n2nc(CSc3nc4ccc(Cl)cc4c(=O)n3CC(C)C)sc2n1`, the IC90 is 4.07 µM. For the same compound, where the note is “PBLUC_HILL_SLOPE 10, PBLUC_R_SQUARED 0.71, read-out: LUCIFERASE INFECTION ASSAY - IC50”, the IC50 was found to be 3.27 µM.
For the compound `O=C(Nc1ccccc1)Nc1nc2ccc([N+](=O)[O-])cc2s1`, the IC90 was determined as 7.31 µM. The IC50 (HEPG2TOX_HILL_SLOPE 6.06, HEPG2TOX_R_SQUARED 0.204, PBLUC_HILL_SLOPE 4.24, PBLUC_R_SQUARED 0.473, read-out: LUCIFERASE INFECTION ASSAY - IC50) is 4.36 µM.
For the compound `CCOC(=O)c1c(C)[nH]c(/C=C2/C(=O)N(c3ccccc3)N=C2C)c1Cc1cccc(Cl)c1`, the IC90 was over 10 µM. In addition, the IC50 under setting [1] is over 10 µM.
As to `COc1ccc(Cn2c(C)nc3oc4ccccc4c(=O)c3c2=O)cc1`, the IC90 was over 9.47 µM. For the same compound, the IC50 (PBLUC_HILL_SLOPE 3.46, PBLUC_R_SQUARED 0.26, read-out: LUCIFERASE INFECTION ASSAY - IC50) is 6.48 µM.
Regarding `c1cc2c(cc1C1=NNC(=NC3CC3)SC1)CCCC2`, the 90% effect concentration (IC90) worked out at 0.277 µM. Also, for the setting “FFLUC_HILL_SLOPE 1.51, FFLUC_R_SQUARED 0.952, HEPG2TOX_HILL_SLOPE 2.86, HEPG2TOX_R_SQUARED 0.94, PBLUC_HILL_SLOPE 0.977, PBLUC_R_SQUARED 0.884, read-out: LUCIFERASE INFECTION ASSAY - IC50”, the concentration for half-maximal inhibition (IC50) was 0.0292 µM.
On to `CCOC(=O)c1c(-c2ccccc2)csc1NC(=O)Cn1ncc(Cl)c(Cl)c1=O`, for which the IC90 came to 4.1 µM. Also, under setting [1], the IC50 is 3.35 µM.
On to `O=C(Nc1ccccc1)c1cc(Nc2ccc(O)cc2)ncn1`, for which the IC90 was over 10.8 µM. The concentration for half-maximal inhibition (IC50) (FFLUC_HILL_SLOPE 0.974, FFLUC_R_SQUARED 0.921, PBLUC_HILL_SLOPE 1.57, PBLUC_R_SQUARED 0.726, read-out: LUCIFERASE INFECTION ASSAY - IC50) came to 5.2 µM.
